Experimental data taken from US11071727B2, “Therapeutic targeting of proteolytic cleavage of the mixed lineage leukemia gene product (MLL1) by taspase1 using kinase inhibitors” (Northwestern University, priority 2018, dated 2021).

Legend:
Type in all cases: cell-based, human
MLL1, MLL-AF4 = assay: Western blot of MLL1 full-length and MLL-AF4 fusion protein levels in SEM cells; conditions: SEM cells, 0, 5 or 10 μM, 30 hours
Experimental: (§1) FIG. 6. CKII inhibition increases genome-wide MLL occupancy and excludes SEC recruitment in MLL leukemia cells. (A) and (B) MLL1C occupancy in CX-4945 or TTP22 treated cells were shown relative to DMSO control. […] (C) Track examples of the MLL1 occupancy at the promoter regions of ELF2 and C6orf211. (D) CX-4945 inhibition of leukemia cell proliferation. Multiple MLL leukemia (orange lines) and non-MLL leukemia (blue lines) were cultured with different doses of CX-4945 for 3 days. Cell number was determined by cell counter and normalized to DMSO control. (E) SEM cells were treated with 0, 5 or 10 μM of CX-4945 for 30 hours and western blot was performed to determine the MLL1 full-length protein levels and MLL-AF4 fusion protein levels. (F) MLL-AFF1, AFF4 and ELL2 occupancies were decreased by CX-4945 treatment in SEM cells.
Cell culture. All of the cell lines were purchased from the American Type Culture Collection (Rockville, Md.). 293T, MCF7 and HCT116 cell lines were maintained in Dulbecco's modified Eagle's medium (DMEM) (Gibco, Gaithersburg, Md.) supplemented with 10% fetal bovine serum (FBS) (Gibco) at 37° with 5% CO2. SEM was maintained in IMDM with 10% FBS. MM6 was maintained in RPMI1640 supplemented with 10% FBS and non-essential amino acids. MOLM13, RS4:11, MV4-11, RL, REH, U937m SU-DHL-6 and OCI-LY1 were maintained in RPMI1640 supplemented with 10% FBS. […]

MLL2, TFIIA = assay: Western blot of MLL2 and TFIIA cleavage in 293T cells treated with CX-4945; conditions: 10 μM, 30 hours
Experimental: FIG. 5. CKII inhibitors selectively increase full-length MLL1 protein levels by decreasing the phosphorylation of MLL1 near the cleavage sites. (A) Conservation of the sequences flanking MLL1-CS2, MLL2 and TFIIA cleavage sites and phosphorylated serine and threonine residues after the cleavage sites (highlighted in red). (B) and (C) 293T cells were transfected with vector control (VT), WT, AA or DD reporter constructs of MLL1-p75 or TFIIA. Western blot was performed with anti-Flag antibody for MLL1 (p75: FL, p47: cleaved) or TFIIA (p54: FL, p47: cleaved). (D) and (E) 293T cells were transfected with WT or AA reporter constructs of MLL1-p75 or TFIIA in the presence or absence of HA-taspase1. Western blot was performed with anti-Flag antibody for MLL1 or TFIIA, or anti-HA antibody for taspase1. (F) 293T cells were infected with shRNAs against CKIIα or CKIIα′. Western blot was performed with anti-MLL1C antibody for MLL1 full-length protein levels, and CKIIα or CKIIα′ for knockdown efficiency. (G) 293T cells were treated with DMSO or 10 μM CX-4945 for 30 hours. Cells were harvested and lysed for Western blot against MLL1, MLL2 or TFIIA using β-tubulin as the loading control. (H) and (I) 293T taspase1 KO cells were pre-treated with CX-4945 (3 μM) or TTP22 (10 μM) for 30 hours. […]

[1] = system: MLL leukemia and non-MLL leukemia cells; assay: Leukemia cell proliferation by cell counting; conditions: panel of MLL and non-MLL leukemia cell lines, increasing concentrations, 3 days
Experimental: as §1
Cell culture. All of the cell lines were purchased from the American Type Culture Collection (Rockville, Md.). 293T, MCF7 and HCT116 cell lines were maintained in Dulbecco's modified Eagle's medium (DMEM) (Gibco, Gaithersburg, Md.) supplemented with 10% fetal bovine serum (FBS) (Gibco) at 37° with 5% CO2. SEM was maintained in IMDM with 10% FBS. […]
Cell Proliferation Assay. Cell proliferation was measured by cell counting using the Vi-CELL™ Cell Counter (Beckman Coulter Life Sciences, Indianapolis, Ind.). […]

## O=C(O)c1ccc2c(c1)nc(Nc1cccc(Cl)c1)c1ccncc12 [CX-4945, 5-(3-chlorophenylamino)benzo[c][2,6]naphthyridine-8-carboxylic acid]
MLL1, MLL-AF4
  MLL1-FL protein levels: MLL1-FL protein levels also increased
  MLL-AF4 protein levels: without altering MLL-AF4 protein levels
MLL2, TFIIA
  cleavage of MLL2 or TFIIA: without affecting the cleavage of MLL2 or TFIIA
[1]
  sensitivity of leukemic cell lines (cell number normalized to DMSO): MLL leukemia cells were generally more sensitive than non-MLL leukemic cells
